Laboratory results: patent US6821980B1, “Substituted 5-benzyl-2,4-diaminopyrimidines” (Basilea Pharmaceutica AG, priority 1999, dated 2004)
pIC50: −log10 of the molar value. ≈ marks a conversion by molar mass, not a printed value. Where two headings read alike, the source gives them in different places.

Legend:
[1] = test system: Streptococcus pneumoniae 1/1; experiment: MIC against Streptococcus pneumoniae 1/1; format: cell-based; conditions: Streptococcus pneumoniae 1/1, trimethoprim- and penicillin-resistant, serotype 6, clinical isolate; for MIC: read-out: MIC Sp1/1
[2] = test system: Staphylococcus aureus 101; experiment: MIC against Staphylococcus aureus 101; format: cell-based; conditions: Staphylococcus aureus 101, MRSA- and trimethoprim-resistant, clinical isolate; for MIC: read-out: MIC Sa101
[3] = biological target: T1, purified DHFR of strain Sp1/1 of Streptococcus pneumoniae (Streptococcus pneumoniae serotype 4, UniProt Q54801); format: biochemical; conditions: IC50 against purified DHFR of strain Sp1/1
T1 sequence (Q54801 1-168 I100L): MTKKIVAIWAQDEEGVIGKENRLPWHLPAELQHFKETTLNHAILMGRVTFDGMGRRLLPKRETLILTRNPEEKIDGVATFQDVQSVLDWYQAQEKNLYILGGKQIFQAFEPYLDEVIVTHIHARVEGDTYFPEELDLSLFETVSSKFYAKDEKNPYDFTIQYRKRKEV

[4] = biological target: purified DHFR of strain 157/4696 of Staphylococcus aureus (Staphylococcus aureus, UniProt P13955); experiment: biochemical
purified DHFR of strain 157/4696 of Staphylococcus aureus, sequence (P13955 whole entry): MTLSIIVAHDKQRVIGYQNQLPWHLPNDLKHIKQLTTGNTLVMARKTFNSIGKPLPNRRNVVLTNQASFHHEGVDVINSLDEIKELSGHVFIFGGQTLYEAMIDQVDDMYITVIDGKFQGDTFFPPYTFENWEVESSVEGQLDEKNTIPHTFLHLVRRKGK

Compound	MIC ([1]; Table 2)	MIC ([2]; Table 2)	pIC50 ([3]; Table 2)	pIC50 [4]	MIC ([1]; Table 1)	MIC ([2]; Table 1)	pIC50 ([3]; Table 1)	MIC Sp1/1 ([1]; Table 2)	MIC Sa101 ([2]; Table 2)	pIC50 ([4]; Table 2, IC50 against purified DHFR of strain 157/4696 (highly trimethoprim-resistant; clinical isolate), read-out: DHFR Sa1)
CCOc1cc(Cc2cnc(N)nc2N)cc(OS(=O)(=O)C2CCC2)c1-c1ccc(CN2CCOCC2)c(N)c1 [Example 40-d, Cyclobutane-sulphonic acid 3′-amino-4-(2,4-diamino-pyrimidin-5-ylmethyl)-6-ethoxy-4′-morpholinomethyl-biphenyl-2-yl ester]	2 µg/mL (≈ 3.52 µM)	2 µg/mL (≈ 3.52 µM)	7.77	6.89						
CCOc1cc(Cc2cnc(N)nc2N)cc(OS(=O)(=O)C2CCC2)c1-c1cc(N)cc(F)c1 [Example 40-e, Cyclobutane-sulphonic acid 3′-amino-4-(2,4-diamino-pyrimidin-5-ylmethyl)-6-ethoxy-5′-fluoro-biphenyl-2-yl ester]	2 µg/mL (≈ 4.1 µM)	2 µg/mL (≈ 4.1 µM)	7.10	6.80						
CCOc1cc(Cc2cnc(N)nc2N)cc(OS(=O)(=O)C2CCC2)c1-c1ccc(N)c(C)c1 [Example 40c, Cyclobutane-sulphonic acid 4′-amino-4-(2,4-diamino-pyrimidin-5-ymethyl)-6-ethoxy-3′-methyl-biphenyl-2-yl ester]				7.43	0.5 µg/mL (≈ 1.03 µM)	1 µg/mL (≈ 2.07 µM)	7.72			
CCOc1cc(Cc2cnc(N)nc2N)cc(OS(=O)(=O)C2CCOCC2)c1-c1ccc(N)c(C)c1 [Example 41-a, Tetrahydropyran-4-sulphonic acid 4′-amino-4-(2,4-diamino-pyrimidin-5-ylmethyl)-6-ethoxy-3′-methyl-biphenyl-2-yl ester]	0.5 µg/mL (≈ 0.973 µM)	2 µg/mL (≈ 3.89 µM)	9.52	7.26						
CCOc1cc(Cc2cnc(N)nc2N)cc(OS(=O)(=O)C2CCOCC2)c1-c1ccc(N)c(F)c1 [Example 41-b, Tetrahydronyran-4-sulphonic acid 4′-amino-4-(2,4-diamino-pyrimidin-5-ylmethyl)-6-ethoxy-3′-fluoro-biphenyl-2-yl ester]	0.5 µg/mL (≈ 0.966 µM)	4 µg/mL (≈ 7.73 µM)	8.21	6.60						
CCOc1cc(Cc2cnc(N)nc2N)cc(OS(=O)(=O)C2CCOCC2)c1-c1cccc(N)c1 [Example 41-c, Tetrahydropyran-4-sulphonic acid 3′-amino-4-(2,4-diamino-pyrimidin-5-ylmethyl)-6-ethoxy-biphenyl-2-yl ester]	0.5 µg/mL (≈ 1 µM)	4 µg/mL (≈ 8.01 µM)	8.38	7.37						
CCOc1cc(Cc2cnc(N)nc2N)cc(OS(=O)(=O)CC2CCCO2)c1-c1cccc(N)c1 (stereo not shown) [Example 42-a, Tetrahydrofuran-2-yl-methanesulphonic acid 3′-amino-4-(2,4-diamino-pyrimidin-5-ylmethyl)-6-ethoxy-biphenyl-2-yl ester]	2 µg/mL (≈ 4 µM)	8 µg/mL (≈ 16 µM)	8.24	6.60						
CCOc1cc(Cc2cnc(N)nc2N)cc(OS(=O)(=O)CC2CCCO2)c1-c1ccc(N)c(F)c1 (stereo not shown) [Example 42-b, Tetrahydrofuran-2-yl-methanesulphonic acid 4′-amino-4-(2,4-diamino-primidin-5-ylmethyl)-6-ethoxy-3′-fluoro-biphenAl-2-yl ester]	2 µg/mL (≈ 3.86 µM)	8 µg/mL (≈ 15.5 µM)	8.12	6.29						
CCOc1cc(Cc2cnc(N)nc2N)cc(OS(=O)(=O)CC2CCCO2)c1-c1ccc(N)c(C)c1 (stereo not shown) [Example 42-c, Tetrahydrofuran-2-yl-methanesulphonic acid 4′-amino-4-(2,4-diamino-pyrimidin-5-ylmethyl)-6-ethoxy-3′-methyl-biphenyl-2-yl ester]	1 µg/mL (≈ 1.95 µM)	8 µg/mL (≈ 15.6 µM)	8.20	6.52						
CCOc1cc(Cc2cnc(N)nc2N)cc(OS(=O)(=O)N(C)C)c1-c1ccc(SC)cc1 [Example 43-a, Dimethylsulphamic acid 4-(2,4-diamino-pyrimidin-5-ylmethyl)-6-ethoxy-4′-methylsulphanyl-biphenyl-2-yl ester]	4 µg/mL (≈ 8.17 µM)	2 µg/mL (≈ 4.08 µM)	8.17	6.49						
CCOc1cc(Cc2cnc(N)nc2N)cc(OS(=O)(=O)N(C)C)c1-c1ccccc1 [Example 43-b, Dimethylsulphamic acid 4-(2,4-diamino-pyrimidin-5-ylmethyl)-6-ethoxy-biphenyl-2-yl ester]	1 µg/mL (≈ 2.25 µM)	1 µg/mL (≈ 2.25 µM)	8.01	6.59						
CCOc1cc(Cc2cnc(N)nc2N)cc(OS(=O)(=O)N(C)C)c1-c1ccc(N)c(C#N)c1 [Example 43-c, Dimethylsulphamic acid 4′-amino-3′-cyano-4-(2,4-diamino-gvrimidin-5-ylmethyl)-6-ethoxy-biphenyl-2-yl ester]	2 µg/mL (≈ 4.14 µM)	2 µg/mL (≈ 4.14 µM)	7.62	6.80						
CCOc1cc(Cc2cnc(N)nc2N)cc(OS(=O)(=O)N(C)C)c1-c1ccc2[nH]ccc2c1 [Example 43-d, Dimethylsulphamic acid 5-(2,4-diamino-pyrimidin-5-ylmethyl)-3-ethoxy-2-(1H-indol-5-yl)-phenyl ester]	1 µg/mL (≈ 2.07 µM)	1 µg/mL (≈ 2.07 µM)	7.38	6.74						
CCOc1cc(Cc2cnc(N)nc2N)cc(OCC)c1-c1cccc(NS(C)(=O)=O)c1 [Example 44-, N-[4′-(2,4-Diamino-pyrimidin-5-ylmethyl)-2′,6′-diethoxy-biphenyl-3-yl]-methanesulphonamide]	2 µg/mL (≈ 4.37 µM)	8 µg/mL (≈ 17.5 µM)	7.74	6.17						
CCOc1cc(Cc2cnc(N)nc2N)cc(OCC)c1-c1ccc(OS(C)(=O)=O)cc1 [Example 45-, Methanesulphonic acid 4′-(2,4-diamino-pyrimidin-5-ylmethyl)-2′,6′-diethoxy-biphenyl-4-yl ester]	4 µg/mL (≈ 8.72 µM)	8 µg/mL (≈ 17.4 µM)	6.89	5.62						
CCOc1cc(Cc2cnc(N)nc2N)cc(OCC)c1-c1ccc(OCC(N)=O)cc1 [Example 46-, 2-[4′-(2,4-Diamino-pylimidin-5-ylmethyl)-2′,6′-diethoxy-biphenyl-4-yloxy]-acetamide]	2 µg/mL (≈ 4.57 µM)	8 µg/mL (≈ 18.3 µM)	7.26	6.12						
CCOc1cc(Cc2cnc(N)nc2N)cc(OCC2(CCC#N)CC2)c1-c1ccc(O)cc1 [Example 47-, 3-{1-[4-(2,4-Diamino-pyrimidin-5-yjmethyl)-6-ethoxy-4′-hydroxy-biphenyl-2-loxymethyl]-cycloprropyl}-propionitrile]			8.00					2 µg/mL (≈ 4.35 µM)	8 µg/mL (≈ 17.4 µM)	5.92
CCOc1cc(Cc2cnc(N)nc2N)cc(OCC(C)(C)CCC#N)c1-c1ccc(O)cc1 [Example 48-, 5-[4-(2,4-Diamino-pyrimidin-5-ylmethyl) 6-ethoy-4′-hydro-biPhenyl-2-xyloxy]-4,4-dimethyl-pentanenitrile]	2 µg/mL (≈ 4.33 µM)	4 µg/mL (≈ 8.67 µM)	7.52	6.12						
CCOc1cc(Cc2cnc(N)nc2N)cc(OCC)c1-c1ccc2c(c1)CCCN2 [Example 49-, 5-[3,5-Diethoxy-4-(1,2,3,4-tetrahydro-quinolin-6-yl)-benzyl]-pyrimidine-2,4-diamine]	8 µg/mL (≈ 19.1 µM)	4 µg/mL (≈ 9.53 µM)	7.34	6.09						
CCOc1cc(Cc2cnc(N)nc2N)cc(OCC)c1-c1cccc(OCCOC)c1 [Example 50-, 5-[2,6-Diethoxy-3′-(2-methoxy-ethoxy)-biphenyl-4-ylmethyl]-pyrimidine-2,4-diamine]	4 µg/mL (≈ 9.12 µM)	8 µg/mL (≈ 18.2 µM)	7.49	5.00						
CCCOc1cc(Cc2cnc(N)nc2N)cc(OCCC)c1-c1cccc(N)c1 [Example 51-, 5-(3′-Amino-2,6-di-n-propoxy-biphenyl-4-ylmethyl)-pyrimidine-2,4-diamine]	2 µg/mL (≈ 4.91 µM)	8 µg/mL (≈ 19.6 µM)	7.37	5.07						
CCCOc1cc(Cc2cnc(N)nc2N)cc(OCCC)c1-c1cccc(O)c1 [Example 52-, 4′-(2,4-Diamino-pyrimidin-5-ylmethyl)-2′,6′-digropobiphenyl-3-ol]	1 µg/mL (≈ 2.45 µM)	8 µg/mL (≈ 19.6 µM)	7.70	5.24						
CCCOc1cc(Cc2cnc(N)nc2N)cc(OCC)c1-c1cccc(O)c1 [Example 53-, 4′-(2,4-Diamino-pyrimidin-5-ylmethyl)-6′-ethoxy-2′-n-propoxy-biphenyl-3-ol]	4 µg/mL (≈ 10.1 µM)	8 µg/mL (≈ 20.3 µM)	7.55	5.74						
CCOc1cc(Cc2cnc(N)nc2N)cc(OCC2CC2)c1-c1cccc(O)c1 [Example 54-, 2′-Cyclopropanomethoxy-4′-(2,4-diamino-pyrimidin-5-ylmethyl)-6′-ethoxy-biphenyl-3-ol]	2 µg/mL (≈ 4.92 µM)	8 µg/mL (≈ 19.7 µM)	7.72	5.51						
CCOc1cc(Cc2cnc(N)nc2N)cc(OCC2CC2)c1-c1ccc(OCCO)cc1 [Example 55-, 2-[2′-Cyclopropylmethoxy-4′-(2,4-diamino-pyrimidin-5-ylmethyl)-6′-ethoxy-biphenyl-4-yloxy]-ethanol]	4 µg/mL (≈ 8.88 µM)	8 µg/mL (≈ 17.8 µM)	7.32	5.77						
